Data as given in patent US20220096516A1, “OLIGONUCLEOTIDE MOLECULE AND APPLICATION THEREOF IN TUMOR THERAPY” (Ractigen Therapeutics, priority 2019, published 2022).
d = 2'-deoxy (DNA); r = 2'-OH (RNA)

System: LHPP gene
Assay: High-throughput screening of saRNAs targeting LHPP promoter: LHPP mRNA by one-step RT-qPCR in Huh7 cells
Type: cell-based, human
Conditions: 10 nM saRNA, 72 hours, relative to control (Mock)
In short: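 Huh7 cells were transfected with 10 nM saRNA using RNAiMax and lysed 72 h later. LHPP mRNA was quantified by one-step RT-qPCR in triplicate wells. Expression was normalised to HPRT1 and TBP and given as fold change versus mock-transfected cells.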

| Substance | Fold of changes in relative LHPP mRNA expression level | Fold of changes in relative LHPP mRNA expression level (log2) |
| --- | --- | --- |
| RAG7-884: saRNA duplex; sense CAGAAGUAAAGUGUUCUCGTT (SEQ ID NO: 101), antisense CGAGAACACUUUACUUCUGTT (SEQ ID NO: 265) (sugars from the 5' end r19 d2, backbone not given here) | 1.22 fold | 0.28 log2 |
| RAG7-885: saRNA duplex; sense CCAGAAGUAAAGUGUUCUCTT (SEQ ID NO: 147), antisense GAGAACACUUUACUUCUGGTT (SEQ ID NO: 311) (sugars from the 5' end r19 d2, backbone not given here) | 1.14 fold | 0.18 log2 |
| RAG7-886: saRNA duplex; sense ACCAGAAGUAAAGUGUUCUTT (SEQ ID NO: 25), antisense AGAACACUUUACUUCUGGUTT (SEQ ID NO: 189) (sugars from the 5' end r19 d2, backbone not given here) | 1.52 fold | 0.60 log2 |
| RAG7-887: saRNA duplex; sense GACCAGAAGUAAAGUGUUCTT (SEQ ID NO: 51), antisense GAACACUUUACUUCUGGUCTT (SEQ ID NO: 215) (sugars from the 5' end r19 d2, backbone not given here) | 1.37 fold | 0.46 log2 |
| RAG7-889: saRNA duplex; sense UGGACCAGAAGUAAAGUGUTT (SEQ ID NO: 115), antisense ACACUUUACUUCUGGUCCATT (SEQ ID NO: 279) (sugars from the 5' end r19 d2, backbone not given here) | 1.19 fold | 0.25 log2 |
| RAG7-890: saRNA duplex; sense UUGGACCAGAAGUAAAGUGTT (SEQ ID NO: 76), antisense CACUUUACUUCUGGUCCAATT (SEQ ID NO: 240) (sugars from the 5' end r19 d2, backbone not given here) | 1.28 fold | 0.36 log2 |
| RAG7-892: saRNA duplex; sense UGUUGGACCAGAAGUAAAGTT (SEQ ID NO: 2), antisense CUUUACUUCUGGUCCAACATT (SEQ ID NO: 166) (sugars from the 5' end r19 d2, backbone not given here) | 2.05 fold | 1.03 log2 |
| RAG7-893: saRNA duplex; sense AUGUUGGACCAGAAGUAAATT (SEQ ID NO: 14), antisense UUUACUUCUGGUCCAACAUTT (SEQ ID NO: 178) (sugars from the 5' end r19 d2, backbone not given here) | 1.63 fold | 0.70 log2 |
| RAG7-894: saRNA duplex; sense UAUGUUGGACCAGAAGUAATT (SEQ ID NO: 37), antisense UUACUUCUGGUCCAACAUATT (SEQ ID NO: 201) (sugars from the 5' end r19 d2, backbone not given here) | 1.45 fold | 0.54 log2 |
| RAG7-896: saRNA duplex; sense GCUAUGUUGGACCAGAAGUTT (SEQ ID NO: 69), antisense ACUUCUGGUCCAACAUAGCTT (SEQ ID NO: 233) (sugars from the 5' end r19 d2, backbone not given here) | 1.30 fold | 0.38 log2 |
| RAG7-897: saRNA duplex; sense AGCUAUGUUGGACCAGAAGTT (SEQ ID NO: 65), antisense CUUCUGGUCCAACAUAGCUTT (SEQ ID NO: 229) (sugars from the 5' end r19 d2, backbone not given here) | 1.31 fold | 0.39 log2 |
| RAG7-898: saRNA duplex; sense AAGCUAUGUUGGACCAGAATT (SEQ ID NO: 59), antisense UUCUGGUCCAACAUAGCUUTT (SEQ ID NO: 223) (sugars from the 5' end r19 d2, backbone not given here) | 1.34 fold | 0.43 log2 |
| RAG7-899: saRNA duplex; sense AAAGCUAUGUUGGACCAGATT (SEQ ID NO: 84), antisense UCUGGUCCAACAUAGCUUUTT (SEQ ID NO: 248) (sugars from the 5' end r19 d2, backbone not given here) | 1.26 fold | 0.33 log2 |
| RAG7-902: saRNA duplex; sense CUCAAAGCUAUGUUGGACCTT (SEQ ID NO: 50), antisense GGUCCAACAUAGCUUUGAGTT (SEQ ID NO: 214) (sugars from the 5' end r19 d2, backbone not given here) | 1.38 fold | 0.46 log2 |
| RAG7-905: saRNA duplex; sense AAGCUCAAAGCUAUGUUGGTT (SEQ ID NO: 92), antisense CCAACAUAGCUUUGAGCUUTT (SEQ ID NO: 256) (sugars from the 5' end r19 d2, backbone not given here) | 1.24 fold | 0.31 log2 |
| RAG7-907: saRNA duplex; sense GAAAGCUCAAAGCUAUGUUTT (SEQ ID NO: 22), antisense AACAUAGCUUUGAGCUUUCTT (SEQ ID NO: 186) (sugars from the 5' end r19 d2, backbone not given here) | 1.55 fold | 0.63 log2 |
| RAG7-908: saRNA duplex; sense UGAAAGCUCAAAGCUAUGUTT (SEQ ID NO: 31), antisense ACAUAGCUUUGAGCUUUCATT (SEQ ID NO: 195) (sugars from the 5' end r19 d2, backbone not given here) | 1.49 fold | 0.57 log2 |
| RAG7-909: saRNA duplex; sense UUGAAAGCUCAAAGCUAUGTT (SEQ ID NO: 23), antisense CAUAGCUUUGAGCUUUCAATT (SEQ ID NO: 187) (sugars from the 5' end r19 d2, backbone not given here) | 1.53 fold | 0.61 log2 |
| RAG7-911: saRNA duplex; sense CUUUGAAAGCUCAAAGCUATT (SEQ ID NO: 160), antisense UAGCUUUGAGCUUUCAAAGTT (SEQ ID NO: 324) (sugars from the 5' end r19 d2, backbone not given here) | 1.11 fold | 0.15 log2 |
| RAG7-914: saRNA duplex; sense CUUCUUUGAAAGCUCAAAGTT (SEQ ID NO: 143), antisense CUUUGAGCUUUCAAAGAAGTT (SEQ ID NO: 307) (sugars from the 5' end r19 d2, backbone not given here) | 1.14 fold | 0.19 log2 |
